Tests used:
Type in all cases: functional
Conditions in all cases: 120 h, read-out: GI
Brassica napus [1] = assay: Herbicidal activity against Brassica napus (oilseed rape) assessed as inhibition of stalk growth at 10 mg/L using pre-emergence exposure protocol after 5 days
Brassica napus [2] = assay: Herbicidal activity against Brassica napus (oilseed rape) assessed as inhibition of stalk growth at 100 mg/L using pre-emergence exposure protocol after 5 days
Echinochloa crus-galli [3] = assay: Herbicidal activity against Echinochloa crus-galli (barnyard grass) assessed as inhibition of root growth at 10 mg/L using pre-emergence exposure protocol after 5 days
Echinochloa crus-galli [4] = assay: Herbicidal activity against Echinochloa crus-galli (barnyard grass) assessed as inhibition of stalk growth at 10 mg/L using pre-emergence exposure protocol after 5 days
Brassica napus [5] = assay: Herbicidal activity against Brassica napus (oilseed rape) assessed as inhibition of root growth at 10 mg/L using pre-emergence exposure protocol after 5 days
Brassica napus [6] = assay: Herbicidal activity against Brassica napus (oilseed rape) assessed as inhibition of root growth at 100 mg/L using pre-emergence exposure protocol after 5 days
Echinochloa crus-galli [7] = assay: Herbicidal activity against Echinochloa crus-galli (barnyard grass) assessed as inhibition of root growth at 100 mg/L using pre-emergence exposure protocol after 5 days
Echinochloa crus-galli [8] = assay: Herbicidal activity against Echinochloa crus-galli (barnyard grass) assessed as inhibition of stalk growth at 100 mg/L using pre-emergence exposure protocol after 5 days

## COc1ccc(-c2noc(C)c2-c2csc(C3CCN(C(=O)Nc4ccc(F)cc4)CC3)n2)cc1
Brassica napus [1]
  inhibition of growth at 10 µg/mL: 14.3%
Brassica napus [2]
  inhibition of growth at 100 µg/mL: 53.6%
Echinochloa crus-galli [3]
  inhibition of growth at 10 µg/mL: 59.1%
Echinochloa crus-galli [4]
  inhibition of growth at 10 µg/mL: 34.8%
Brassica napus [5]
  inhibition of growth at 10 µg/mL: 46.9%
Brassica napus [6]
  inhibition of growth at 100 µg/mL: 81.3%
Echinochloa crus-galli [7]
  inhibition of growth at 100 µg/mL: 86.4%
Echinochloa crus-galli [8]
  inhibition of growth at 100 µg/mL: 37%

## Cc1onc(-c2ccccc2)c1-c1csc(C2CCN(C(=O)Nc3ccc(F)cc3)CC2)n1
Brassica napus [1]
  inhibition of growth at 10 µg/mL: 0%
Brassica napus [2]
  inhibition of growth at 100 µg/mL: 31.8%
Echinochloa crus-galli [3]
  inhibition of growth at 10 µg/mL: 54.8%
Echinochloa crus-galli [4]
  inhibition of growth at 10 µg/mL: 0%
Brassica napus [5]
  inhibition of growth at 10 µg/mL: 66.3%
Brassica napus [6]
  inhibition of growth at 100 µg/mL: 85.4%
Echinochloa crus-galli [7]
  inhibition of growth at 100 µg/mL: 87.1%
Echinochloa crus-galli [8]
  inhibition of growth at 100 µg/mL: 17.7%

## Cc1onc(-c2ccc(F)cc2)c1-c1csc(C2CCN(C(=O)Nc3ccc(F)cc3)CC2)n1
Brassica napus [1]
  inhibition of growth at 10 µg/mL: 6.7%
Brassica napus [2]
  inhibition of growth at 100 µg/mL: 56.7%
Echinochloa crus-galli [3]
  inhibition of growth at 10 µg/mL: 35.5%
Echinochloa crus-galli [4]
  inhibition of growth at 10 µg/mL: 50%
Brassica napus [5]
  inhibition of growth at 10 µg/mL: 35.8%
Brassica napus [6]
  inhibition of growth at 100 µg/mL: 76.1%
Echinochloa crus-galli [7]
  inhibition of growth at 100 µg/mL: 74.2%
Echinochloa crus-galli [8]
  inhibition of growth at 100 µg/mL: 52.3%

## Cc1onc(-c2ccccc2F)c1-c1csc(C2CCN(C(=O)Nc3ccc(F)cc3)CC2)n1
Brassica napus [1]
  inhibition of growth at 10 µg/mL: 16.7%
Brassica napus [2]
  inhibition of growth at 100 µg/mL: 66.7%
Echinochloa crus-galli [3]
  inhibition of growth at 10 µg/mL: 64.5%
Echinochloa crus-galli [4]
  inhibition of growth at 10 µg/mL: 56.8%
Brassica napus [5]
  inhibition of growth at 10 µg/mL: 52.3%
Brassica napus [6]
  inhibition of growth at 100 µg/mL: 96.6%
Echinochloa crus-galli [7]
  inhibition of growth at 100 µg/mL: 80.6%
Echinochloa crus-galli [8]
  inhibition of growth at 100 µg/mL: 63.6%

## Cc1onc(-c2ccc(Cl)cc2Cl)c1-c1csc(C2CCN(C(=O)Nc3ccc(F)cc3)CC2)n1
Brassica napus [1]
  inhibition of growth at 10 µg/mL: 20.2%
Brassica napus [2]
  inhibition of growth at 100 µg/mL: 70%
Echinochloa crus-galli [3]
  inhibition of growth at 10 µg/mL: 32.3%
Echinochloa crus-galli [4]
  inhibition of growth at 10 µg/mL: 45.5%
Brassica napus [5]
  inhibition of growth at 10 µg/mL: 34.9%
Brassica napus [6]
  inhibition of growth at 100 µg/mL: 90.3%
Echinochloa crus-galli [7]
  inhibition of growth at 100 µg/mL: 83.8%
Echinochloa crus-galli [8]
  inhibition of growth at 100 µg/mL: 63.6%

## Cc1onc(-c2ccc(F)cc2)c1-c1csc(C2CCN(C(=O)NC(C)C)CC2)n1
Brassica napus [1]
  inhibition of growth at 10 µg/mL: 46.7%
Brassica napus [2]
  inhibition of growth at 100 µg/mL: 66.7%
Echinochloa crus-galli [3]
  inhibition of growth at 10 µg/mL: 54.8%
Echinochloa crus-galli [4]
  inhibition of growth at 10 µg/mL: 47.7%
Brassica napus [5]
  inhibition of growth at 10 µg/mL: 68.8%
Brassica napus [6]
  inhibition of growth at 100 µg/mL: 87.2%
Echinochloa crus-galli [7]
  inhibition of growth at 100 µg/mL: 83.9%
Echinochloa crus-galli [8]
  inhibition of growth at 100 µg/mL: 63.6%

## CCCCNC(=O)N1CCC(c2nc(-c3c(-c4ccc(F)cc4)noc3C)cs2)CC1
Brassica napus [1]
  inhibition of growth at 10 µg/mL: 40%
Brassica napus [2]
  inhibition of growth at 100 µg/mL: 70%
Echinochloa crus-galli [3]
  inhibition of growth at 10 µg/mL: 71%
Echinochloa crus-galli [4]
  inhibition of growth at 10 µg/mL: 56.8%
Brassica napus [5]
  inhibition of growth at 10 µg/mL: 67.8%
Brassica napus [6]
  inhibition of growth at 100 µg/mL: 88.1%
Echinochloa crus-galli [7]
  inhibition of growth at 100 µg/mL: 87.1%
Echinochloa crus-galli [8]
  inhibition of growth at 100 µg/mL: 63.6%

## Cc1onc(-c2ccc(F)cc2)c1-c1csc(C2CCN(C(=O)Nc3ccccc3)CC2)n1
Brassica napus [1]
  inhibition of growth at 10 µg/mL: 25%
Brassica napus [2]
  inhibition of growth at 100 µg/mL: 53.6%
Echinochloa crus-galli [3]
  inhibition of growth at 10 µg/mL: 65.9%
Echinochloa crus-galli [4]
  inhibition of growth at 10 µg/mL: 39.1%
Brassica napus [5]
  inhibition of growth at 10 µg/mL: 46.9%
Brassica napus [6]
  inhibition of growth at 100 µg/mL: 83.3%
Echinochloa crus-galli [7]
  inhibition of growth at 100 µg/mL: 95.5%
Echinochloa crus-galli [8]
  inhibition of growth at 100 µg/mL: 56.5%

## Cc1onc(-c2ccc(F)cc2)c1-c1csc(C2CCN(C(=S)Nc3ccccc3)CC2)n1
Brassica napus [1]
  inhibition of growth at 10 µg/mL: 6.7%
Brassica napus [2]
  inhibition of growth at 100 µg/mL: 53.3%
Echinochloa crus-galli [3]
  inhibition of growth at 10 µg/mL: 48.4%
Echinochloa crus-galli [4]
  inhibition of growth at 10 µg/mL: 43.2%
Brassica napus [5]
  inhibition of growth at 10 µg/mL: 54.1%
Brassica napus [6]
  inhibition of growth at 100 µg/mL: 90.1%
Echinochloa crus-galli [7]
  inhibition of growth at 100 µg/mL: 87.1%
Echinochloa crus-galli [8]
  inhibition of growth at 100 µg/mL: 63.6%

## Cc1onc(-c2ccccc2F)c1-c1csc(C2CCN(C(=O)NC(C)C)CC2)n1
Brassica napus [1]
  inhibition of growth at 10 µg/mL: 22.7%
Brassica napus [2]
  inhibition of growth at 100 µg/mL: 54.5%
Echinochloa crus-galli [3]
  inhibition of growth at 10 µg/mL: 56.5%
Echinochloa crus-galli [4]
  inhibition of growth at 10 µg/mL: 22%
Brassica napus [5]
  inhibition of growth at 10 µg/mL: 68.5%
Brassica napus [6]
  inhibition of growth at 100 µg/mL: 83.1%
Echinochloa crus-galli [7]
  inhibition of growth at 100 µg/mL: 73.9%
Echinochloa crus-galli [8]
  inhibition of growth at 100 µg/mL: 14.6%

## CCCCNC(=O)N1CCC(c2nc(-c3c(-c4ccccc4F)noc3C)cs2)CC1
Brassica napus [1]
  inhibition of growth at 10 µg/mL: 43.3%
Brassica napus [2]
  inhibition of growth at 100 µg/mL: 70%
Echinochloa crus-galli [3]
  inhibition of growth at 10 µg/mL: 58.1%
Echinochloa crus-galli [4]
  inhibition of growth at 10 µg/mL: 61.4%
Brassica napus [5]
  inhibition of growth at 10 µg/mL: 61.5%
Brassica napus [6]
  inhibition of growth at 100 µg/mL: 86.2%
Echinochloa crus-galli [7]
  inhibition of growth at 100 µg/mL: 90.3%
Echinochloa crus-galli [8]
  inhibition of growth at 100 µg/mL: 63.6%

## Cc1onc(-c2ccccc2F)c1-c1csc(C2CCN(C(=O)Nc3ccccc3)CC2)n1
Brassica napus [1]
  inhibition of growth at 10 µg/mL: 31.8%
Brassica napus [2]
  inhibition of growth at 100 µg/mL: 72.7%
Echinochloa crus-galli [3]
  inhibition of growth at 10 µg/mL: 56.5%
Echinochloa crus-galli [4]
  inhibition of growth at 10 µg/mL: 17.1%
Brassica napus [5]
  inhibition of growth at 10 µg/mL: 56.2%
Brassica napus [6]
  inhibition of growth at 100 µg/mL: 91.2%
Echinochloa crus-galli [7]
  inhibition of growth at 100 µg/mL: 84.8%
Echinochloa crus-galli [8]
  inhibition of growth at 100 µg/mL: 39%

## Cc1onc(-c2ccccc2F)c1-c1csc(C2CCN(C(=S)Nc3ccccc3)CC2)n1
Brassica napus [1]
  inhibition of growth at 10 µg/mL: 43.3%
Brassica napus [2]
  inhibition of growth at 100 µg/mL: 60%
Echinochloa crus-galli [3]
  inhibition of growth at 10 µg/mL: 48.4%
Echinochloa crus-galli [4]
  inhibition of growth at 10 µg/mL: 45.5%
Brassica napus [5]
  inhibition of growth at 10 µg/mL: 64.2%
Brassica napus [6]
  inhibition of growth at 100 µg/mL: 92.7%
Echinochloa crus-galli [7]
  inhibition of growth at 100 µg/mL: 83.9%
Echinochloa crus-galli [8]
  inhibition of growth at 100 µg/mL: 59.1%

## Cc1onc(-c2ccccc2)c1-c1csc(C2CCN(C(=O)Nc3ccccc3)CC2)n1
Brassica napus [1]
  inhibition of growth at 10 µg/mL: 30%
Brassica napus [2]
  inhibition of growth at 100 µg/mL: 70%
Echinochloa crus-galli [3]
  inhibition of growth at 10 µg/mL: 52%
Echinochloa crus-galli [4]
  inhibition of growth at 10 µg/mL: 52.3%
Brassica napus [5]
  inhibition of growth at 10 µg/mL: 51.4%
Brassica napus [6]
  inhibition of growth at 100 µg/mL: 80.4%
Echinochloa crus-galli [7]
  inhibition of growth at 100 µg/mL: 78.3%
Echinochloa crus-galli [8]
  inhibition of growth at 100 µg/mL: 63.6%

## COc1ccc(-c2noc(C)c2-c2csc(C3CCN(C(=O)Nc4ccccc4)CC3)n2)cc1
Brassica napus [1]
  inhibition of growth at 10 µg/mL: -22.7%
Brassica napus [2]
  inhibition of growth at 100 µg/mL: 4.5%
Echinochloa crus-galli [3]
  inhibition of growth at 10 µg/mL: 45.7%
Echinochloa crus-galli [4]
  inhibition of growth at 10 µg/mL: -22%
Brassica napus [5]
  inhibition of growth at 10 µg/mL: 20.2%
Brassica napus [6]
  inhibition of growth at 100 µg/mL: 43.8%
Echinochloa crus-galli [7]
  inhibition of growth at 100 µg/mL: 76.1%
Echinochloa crus-galli [8]
  inhibition of growth at 100 µg/mL: 24.6%

From ChEMBL document CHEMBL3046673, “Synthesis and herbicidal activities of novel 4-(4-(5-methyl-3-arylisoxazol-4-yl)thiazol-2-yl)piperidyl carboxamides and thiocarboxamides” (Molecules, 2009)
